According to patent US4297279A, “Imidazoledicarboxylic acid derivative” (Ajinomoto Co., Inc., priority 1979, dated 1981):
Converted amounts (≈) assume the structure as drawn. Structures can show the parent of a compound that is named as a salt.

Each compound was assayed on Pseudomonas aeruginosa AJ 2116 (assay: Minimum Inhibitory Concentration (MIC) against Pseudomonas aeruginosa AJ 2116 in culture). Details: not given.
Type: cell-based
Text: Comparative Minimun Inhibitory Concentrations (MIC) (the minimum concentration of the compound in micrograms per milliliter required to inhibit the growth of the test organism in a culture) obtained using Pseudomonas aeruginosa AJ 2116 as the test organism, are presented in Table 2.

MIC (minimum concentration of the compound required to inhibit the growth of the test organism in a culture)	SMILES
50 µg/mL	CC(=O)OCC1=C(C(=O)O)N2C(=O)[C@@H](NC(=O)[C@H](NC(=O)c3[nH]cnc3C(=O)O)c3ccccc3)C2SC1 (stereo partly drawn) [Example 3a, 7-β-[D(-)-α-(4-carboxyimidazole-5-carboxamido)phenylacetamido]cephalosporanic acid]

Same assay, conditions: AJ2116, read-out: MIC (minimum concentration of the compound required to inhibit the growth of the test organism in a culture)

SMILES	MIC
CC1(C)S[C@@H]2[C@H](NC(=O)[C@H](N)c3ccccc3)C(=O)N2[C@H]1C(=O)O [Ampicillin, reference compound]	> 500 µg/mL
O=C([O-])C1=C(C[n+]2ccc(CCS(=O)(=O)O)cc2)CS[C@@H]2[C@H](NC(=O)[C@H](NC(=O)c3nc[nH]c3C(=O)O)c3ccccc3)C(=O)N12 [Example 5, 7-β-[D-(-)-α-(4-carboxyimidazole-5-carboxamido)phenylacetamido]-3-(4-α-sulphoethylpyridiniummethyl-3-cephem-4-carboxylic acid disodium salt trihydrate]	12.5 µg/mL
Cn1nnnc1SCC1=C(C(=O)O)N2C(=O)[C@@H](NC(=O)[C@H](NC(=O)c3nc[nH]c3C(=O)O)c3ccccc3)[C@H]2SC1 [Example 4, 7-β-[D-(-)-α-(4-carboxyimidazole-5-carboxamido)phenylacetamido]-3-[[(1-methyl-1H-tetrazol-5-yl)thio]methyl]-3-cephem-4-carboxylic acid monohydrate]	50 µg/mL
CC1(C)S[C@@H]2[C@H](NC(=O)C(C(=O)O)c3ccccc3)C(=O)N2[C@H]1C(=O)O (stereo partly drawn) [Carbenicillin, reference compound]	100 µg/mL (≈ 264 µM)
O=C(O)Cc1ccc[n+](CC2=C(C(=O)[O-])N3C(=O)[C@@H](NC(=O)[C@H](NC(=O)c4nc[nH]c4C(=O)O)c4ccccc4)[C@H]3SC2)c1 [Example 6, disodium salt]	12.5 µg/mL

Results, then the compound that gave them:

MIC	SMILES
12.5 µg/mL (≈ 25.6 µM)	CC1(C)S[C@@H]2[C@H](NC(=O)[C@H](NC(=O)c3nc[nH]c3C(=O)O)c3ccccc3)C(=O)N2[C@H]1C(=O)O [Example 3b, D-α-(4-carboxyimidazole-5-carboxamido)benzylpenicillin]
50 µg/mL (≈ 89.4 µM)	CC(=O)OCC1=C(C(=O)O)N2C(=O)[C@@H](NC(=O)[C@H](NC(=O)c3nc[nH]c3C(=O)O)c3ccc(O)cc3)[C@H]2SC1 [Example 3d, 7-β-[D(-)-α-(4-carboxyimidazole-5-carboxamido)-p-hydroxyphenylacetamido]cephalosporanic acid]
12.5 µg/mL	CC1(C)S[C@@H]2[C@H](NC(=O)[C@H](NC(=O)c3nc[nH]c3C(=O)O)c3ccc(O)cc3)C(=O)N2[C@H]1C(=O)O [Example 3c, D-α-(4-carboximidazole-5-carboxamido)-p-hydroxybenzylpenicillin monohydrate]
